# Experimental data taken from patent publication US20250367185A1, “TRANSLESION SYNTHESIS POLYMERASE INHIBITORS AND USES THEREOF” (THE UNIVERSITY OF VERMONT AND STATE AGRICULTURAL COLLEGE, priority 2022, published 2025).
# System: HPRT (hypoxanthine phosphoribosyltransferase) gene in A549-ACE2+ cells infected with SARS-COV-2
# Test: HPRT mutagenesis in SARS-COV-2 infected cells
# Format: cell-based
smiles,measurement,value
"CC(C)CC(=O)c1c(Nc2ccc(C(=O)O)cc2Cl)[nH]c2c(Cl)ccc([N+](=O)[O-])c2c1=O [Compound 1, 3-chloro-4-((8-chloro-3-(3-methylbutanoyl)-5-nitro-4-oxo-1,4-dihydroquinolin-2-yl)amino)benzoic acid]",SARS-COV-2-dependent HPRT mutagenesis,suppress
